Test results reported in patent publication US20060148754A1, “Composition for treating and/or preventing dysfunctions associated with type 2 diabetes mellitus and insulin resistance” (priority 2003, published 2006).

Assay: Acetate and glycerol tracer infusion study with ingestion of lactulose or saline in obese, insulin resistant subjects
Type: in vivo, human
Protocol: Eight obese and insulin resistant subjects received a primed constant intravenous infusion of [1-^13C]acetate at the rate of 0.50 μmol·kg^−1·min^−1 and of [1,1,2,3,3-^2H5]glycerol at the rate of 0.11 μmol·kg^−1·min^−1 for 9 hours. After 3 hours of tracer infusion, patients ingested 30 g of pure lactulose, or saline solution. Arterialized blood samples were collected regularly.

For `OC[C@H]1O[C@@H](O[C@@H]2[C@@H](CO)OC(O)(CO)[C@H]2O)[C@H](O)[C@@H](O)[C@H]1O` (mixture of isomers) [lactulose], the “plasma acetate concentration, maximum” value (after ingestion of 30 g lactulose, then decreased to baseline) was “≈ 400 μmol/L”, the FFA concentrations (after ingestion of 30 g lactulose, to 120 min, thereafter increased slowly) was “decreased significantly” and the acetate turnover rate (after ingestion of 30 g pure lactulose, eight obese insulin resistant subjects, saline 10.3±2.2, P<0.0001) was 15.5 ± 2.2 µmol/kg/min. The glycerol turnover (after ingestion of 30 g pure lactulose, saline 3.5±0.3, P≦0.05) was 2.8 ± 0.4 µmol/kg/min.
